Test results from patent US20220280653A1, “INTERCELLULAR ADHESION MOLECULE 1 (ICAM1) ANTIBODY DRUG CONJUGATE AND USES THEREOF” (Children's Medical Center Corporation, priority 2019, published 2022).
pIC50: −log10 of the molar value. Where a name gives a salt, the structure may show the parent alone.

Key:
[1] = tested on: PANC-1 cells; test: Cytotoxicity assay (CCK-8); assay type: cell-based; settings: Homo sapiens; PANC-1, 72 hours
[2] = in vivo; cited from earlier work

Compound: Nc1ccn([C@@H]2O[C@H](CO)[C@@H](O)C2(F)F)c(=O)n1 [GEM, Gemcitabine hydrochloride]
- pIC50 [1]: 4.05
- circulation half-life [2]: 16.8 min
